Test results reported in the kinase profiling compilation of Christmann-Franck et al. (2016).

Key:
Test in all cases: radiometric filter-binding kinase assay, Kinase HotSpot
Conditions in all cases: compound 0.5 µM; ATP 10 µM
ACVRL1 (human) = ACVRL1 (human) (UniProt P37023)
ULK2 (human) = ULK2 (human) (UniProt Q8IYT8)
EPHA2 (human) = EPHA2 (human) (UniProt P29317)
RPS6KB2 (human) = RPS6KB2 (human) (UniProt Q9UBS0)
CSNK2A2 (human) = CSNK2A2 (human) (UniProt P19784)
TBK1 (human) = TBK1 (human) (UniProt Q9UHD2)
Sequence of TBK1 (human) (Q9UHD2 whole entry, looked up): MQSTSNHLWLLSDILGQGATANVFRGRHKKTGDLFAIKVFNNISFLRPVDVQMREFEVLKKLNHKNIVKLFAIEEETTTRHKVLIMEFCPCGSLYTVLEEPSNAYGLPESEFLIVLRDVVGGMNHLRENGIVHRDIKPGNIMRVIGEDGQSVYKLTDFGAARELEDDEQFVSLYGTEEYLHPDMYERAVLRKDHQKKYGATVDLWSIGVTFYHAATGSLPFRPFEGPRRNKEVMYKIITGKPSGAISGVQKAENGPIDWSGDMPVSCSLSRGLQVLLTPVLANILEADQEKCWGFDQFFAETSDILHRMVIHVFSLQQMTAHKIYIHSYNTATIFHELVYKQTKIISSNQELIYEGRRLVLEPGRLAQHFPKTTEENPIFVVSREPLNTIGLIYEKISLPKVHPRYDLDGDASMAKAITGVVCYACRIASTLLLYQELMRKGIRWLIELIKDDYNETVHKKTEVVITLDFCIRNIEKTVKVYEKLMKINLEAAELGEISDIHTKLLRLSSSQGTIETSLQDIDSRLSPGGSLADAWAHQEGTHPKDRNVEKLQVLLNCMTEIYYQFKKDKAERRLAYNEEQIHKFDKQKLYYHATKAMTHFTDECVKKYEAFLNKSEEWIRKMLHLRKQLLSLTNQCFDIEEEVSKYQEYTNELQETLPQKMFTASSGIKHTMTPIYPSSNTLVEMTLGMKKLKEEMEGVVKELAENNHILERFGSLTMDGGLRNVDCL

ULK1 (human) = ULK1 (human) (UniProt O75385)
MAPKAPK3 (human) = MAPKAPK3 (human) (UniProt Q16644)
SRMS (human) = SRMS (human) (UniProt Q9H3Y6)
FGFR4 (human) = FGFR4 (human) (UniProt P22455)
MET (human) = MET (human) (UniProt P08581)
CDK5 CDK5R1 p25 (human) = CDK5 CDK5R1 p25 (human) (UniProt Q00535+Q15078)
Sequence of CDK5 CDK5R1 p25 (human) (Q00535 whole entry, looked up): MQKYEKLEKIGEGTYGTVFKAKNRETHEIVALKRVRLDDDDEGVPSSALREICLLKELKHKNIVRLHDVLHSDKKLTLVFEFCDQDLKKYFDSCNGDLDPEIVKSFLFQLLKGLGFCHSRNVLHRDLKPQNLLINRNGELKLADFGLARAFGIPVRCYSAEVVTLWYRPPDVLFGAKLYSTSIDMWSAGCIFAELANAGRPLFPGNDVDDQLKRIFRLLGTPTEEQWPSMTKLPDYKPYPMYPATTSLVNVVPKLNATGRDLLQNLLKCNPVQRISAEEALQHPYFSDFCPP
Sequence of CDK5 CDK5R1 p25 (human) (Q15078 whole entry, looked up): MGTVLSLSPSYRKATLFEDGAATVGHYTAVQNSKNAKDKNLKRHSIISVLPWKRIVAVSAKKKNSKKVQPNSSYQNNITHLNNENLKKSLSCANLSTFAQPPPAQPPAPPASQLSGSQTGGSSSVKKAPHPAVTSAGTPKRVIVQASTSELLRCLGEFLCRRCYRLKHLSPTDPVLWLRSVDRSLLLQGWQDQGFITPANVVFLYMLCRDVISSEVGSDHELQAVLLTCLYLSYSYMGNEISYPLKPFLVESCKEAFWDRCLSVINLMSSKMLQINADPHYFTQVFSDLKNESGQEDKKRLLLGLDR

AURKA (human) = AURKA (human) (UniProt O14965)
EPHB3 (human) = EPHB3 (human) (UniProt P54753)
RPS6KA3 KD1 KD2 (human) = RPS6KA3 KD1 KD2 (human) (UniProt P51812)
CSNK2A1 (human) = CSNK2A1 (human) (UniProt P68400)
VRK1 (human) = VRK1 (human) (UniProt Q99986)
Sequence of VRK1 (human) (Q99986 whole entry, looked up): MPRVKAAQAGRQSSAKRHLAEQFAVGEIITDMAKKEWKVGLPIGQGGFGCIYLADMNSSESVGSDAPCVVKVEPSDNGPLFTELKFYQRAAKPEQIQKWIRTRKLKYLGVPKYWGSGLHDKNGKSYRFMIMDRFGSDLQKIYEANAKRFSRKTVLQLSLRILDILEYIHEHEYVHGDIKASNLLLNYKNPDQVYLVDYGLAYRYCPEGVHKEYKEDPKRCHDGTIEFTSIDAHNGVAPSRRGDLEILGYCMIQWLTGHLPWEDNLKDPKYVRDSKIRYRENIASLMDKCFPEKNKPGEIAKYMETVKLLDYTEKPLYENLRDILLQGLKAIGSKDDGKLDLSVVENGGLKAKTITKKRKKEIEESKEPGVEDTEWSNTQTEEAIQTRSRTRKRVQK

NTRK1 (human) = NTRK1 (human) (UniProt P04629)
ROS1 (human) = ROS1 (human) (UniProt P08922)
RPS6KA4 KD2 (human) = RPS6KA4 KD2 (human) (UniProt O75676)
MAP3K9 (human) = MAP3K9 (human) (UniProt P80192)
EPHA1 (human) = EPHA1 (human) (UniProt P21709)
PKN2 (human) = PKN2 (human) (UniProt Q16513)
CDK2 CCNA2 (human) = CDK2 CCNA2 (human) (UniProt P24941+P20248)
Sequence of CDK2 CCNA2 (human) (P20248 whole entry, looked up, other chains not shown): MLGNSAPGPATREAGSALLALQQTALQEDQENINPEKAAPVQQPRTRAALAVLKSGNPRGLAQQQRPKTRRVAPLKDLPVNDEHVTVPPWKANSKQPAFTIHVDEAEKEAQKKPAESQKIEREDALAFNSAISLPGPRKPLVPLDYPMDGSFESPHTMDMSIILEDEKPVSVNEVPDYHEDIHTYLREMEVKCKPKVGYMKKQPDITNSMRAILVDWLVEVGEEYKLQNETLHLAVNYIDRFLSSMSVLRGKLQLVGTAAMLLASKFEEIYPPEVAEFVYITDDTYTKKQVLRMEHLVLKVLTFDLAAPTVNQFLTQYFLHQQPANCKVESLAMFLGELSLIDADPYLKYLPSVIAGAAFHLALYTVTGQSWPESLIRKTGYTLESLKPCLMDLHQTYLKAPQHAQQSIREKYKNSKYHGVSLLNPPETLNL

WEE1 (human) = WEE1 (human) (UniProt P30291)
Sequence of WEE1 (human) (P30291 whole entry, looked up): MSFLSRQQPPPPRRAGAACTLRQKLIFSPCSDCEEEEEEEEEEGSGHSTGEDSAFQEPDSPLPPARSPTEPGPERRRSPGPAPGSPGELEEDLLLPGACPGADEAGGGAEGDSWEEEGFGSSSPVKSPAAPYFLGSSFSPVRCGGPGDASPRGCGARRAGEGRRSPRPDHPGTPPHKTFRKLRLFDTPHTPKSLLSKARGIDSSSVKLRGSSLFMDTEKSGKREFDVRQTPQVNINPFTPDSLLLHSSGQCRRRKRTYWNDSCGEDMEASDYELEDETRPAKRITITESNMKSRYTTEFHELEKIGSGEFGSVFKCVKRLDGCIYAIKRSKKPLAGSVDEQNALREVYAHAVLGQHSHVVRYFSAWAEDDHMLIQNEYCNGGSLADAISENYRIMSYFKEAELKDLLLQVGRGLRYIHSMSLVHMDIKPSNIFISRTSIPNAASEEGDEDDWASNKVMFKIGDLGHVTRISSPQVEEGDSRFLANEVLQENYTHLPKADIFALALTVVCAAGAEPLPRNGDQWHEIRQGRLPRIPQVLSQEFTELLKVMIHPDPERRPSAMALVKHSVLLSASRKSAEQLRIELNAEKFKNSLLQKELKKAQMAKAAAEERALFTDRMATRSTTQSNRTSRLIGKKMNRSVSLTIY

HIPK2 (human) = HIPK2 (human) (UniProt Q9H2X6)
PRKCE (human) = PRKCE (human) (UniProt Q02156)
Sequence of PRKCE (human) (Q02156 whole entry, looked up): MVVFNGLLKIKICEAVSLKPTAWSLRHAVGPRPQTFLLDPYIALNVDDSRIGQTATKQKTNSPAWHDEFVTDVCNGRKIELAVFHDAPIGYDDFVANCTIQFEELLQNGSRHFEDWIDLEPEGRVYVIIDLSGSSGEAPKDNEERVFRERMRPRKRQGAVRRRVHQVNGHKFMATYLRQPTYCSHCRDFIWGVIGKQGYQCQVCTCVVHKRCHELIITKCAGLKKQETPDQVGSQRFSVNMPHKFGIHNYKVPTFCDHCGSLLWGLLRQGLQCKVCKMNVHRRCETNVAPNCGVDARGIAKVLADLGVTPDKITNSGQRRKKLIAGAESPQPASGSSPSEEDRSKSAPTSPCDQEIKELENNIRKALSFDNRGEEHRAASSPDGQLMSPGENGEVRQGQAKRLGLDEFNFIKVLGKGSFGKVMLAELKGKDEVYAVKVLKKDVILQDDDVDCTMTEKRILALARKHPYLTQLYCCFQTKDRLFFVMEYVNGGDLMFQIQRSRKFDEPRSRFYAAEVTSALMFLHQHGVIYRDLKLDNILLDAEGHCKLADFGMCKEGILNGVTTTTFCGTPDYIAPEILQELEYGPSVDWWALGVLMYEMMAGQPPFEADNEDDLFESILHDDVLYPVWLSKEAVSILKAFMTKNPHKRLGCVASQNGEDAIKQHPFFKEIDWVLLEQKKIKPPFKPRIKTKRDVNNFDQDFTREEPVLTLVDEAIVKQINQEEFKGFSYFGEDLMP

HCK (human) = HCK (human) (UniProt P08631)
PNCK (human) = PNCK (human) (UniProt Q6P2M8)
CLK4 (human) = CLK4 (human) (UniProt Q9HAZ1)
GRK4 (human) = GRK4 (human) (UniProt P32298)
WNK2 (human) = WNK2 (human) (UniProt Q9Y3S1)
[1] = tested on: FLT4 (human), P35916 [Q890H]
NUAK2 (human) = NUAK2 (human) (UniProt Q9H093)
Sequence of NUAK2 (human) (Q9H093 whole entry, looked up): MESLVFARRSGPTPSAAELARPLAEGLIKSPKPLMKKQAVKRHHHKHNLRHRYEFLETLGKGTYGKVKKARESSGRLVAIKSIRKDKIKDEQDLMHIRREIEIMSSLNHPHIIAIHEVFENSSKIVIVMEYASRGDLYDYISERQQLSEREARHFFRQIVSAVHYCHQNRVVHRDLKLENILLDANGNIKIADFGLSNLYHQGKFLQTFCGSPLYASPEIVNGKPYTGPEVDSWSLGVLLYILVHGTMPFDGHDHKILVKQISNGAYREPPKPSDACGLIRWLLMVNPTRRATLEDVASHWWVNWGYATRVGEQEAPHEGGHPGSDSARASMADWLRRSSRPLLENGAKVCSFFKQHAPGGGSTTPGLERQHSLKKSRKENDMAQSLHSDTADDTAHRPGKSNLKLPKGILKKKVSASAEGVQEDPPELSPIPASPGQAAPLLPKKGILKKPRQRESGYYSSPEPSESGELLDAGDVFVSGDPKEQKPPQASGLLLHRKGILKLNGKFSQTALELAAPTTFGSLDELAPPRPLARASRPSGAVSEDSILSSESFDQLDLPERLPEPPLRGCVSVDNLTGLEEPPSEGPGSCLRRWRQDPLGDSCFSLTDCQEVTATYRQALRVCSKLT

PIM1 (human) = PIM1 (human) (UniProt P11309)
Sequence of PIM1 (human) (P11309 whole entry, looked up): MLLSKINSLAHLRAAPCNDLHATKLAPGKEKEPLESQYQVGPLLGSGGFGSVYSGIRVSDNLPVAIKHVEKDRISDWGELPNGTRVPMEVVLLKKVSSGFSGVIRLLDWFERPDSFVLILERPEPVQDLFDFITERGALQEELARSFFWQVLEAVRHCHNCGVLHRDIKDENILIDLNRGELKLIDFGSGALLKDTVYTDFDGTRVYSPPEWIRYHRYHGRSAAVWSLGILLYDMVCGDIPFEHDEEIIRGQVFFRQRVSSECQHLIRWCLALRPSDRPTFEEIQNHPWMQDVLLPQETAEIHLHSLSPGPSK

NEK11 (human) = NEK11 (human) (UniProt Q8NG66)
CDK4 CCND3 (human) = CDK4 CCND3 (human) (UniProt P30281+P11802)
SRPK2 (human) = SRPK2 (human) (UniProt P78362)
CDK1 CCNB1 (human) = CDK1 CCNB1 (human) (UniProt P06493+P14635)
ERBB2 (human) = ERBB2 (human) (UniProt P04626)
GRK6 (human) = GRK6 (human) (UniProt P43250)

Sequence of ACVRL1 (human) (P37023 whole entry, looked up): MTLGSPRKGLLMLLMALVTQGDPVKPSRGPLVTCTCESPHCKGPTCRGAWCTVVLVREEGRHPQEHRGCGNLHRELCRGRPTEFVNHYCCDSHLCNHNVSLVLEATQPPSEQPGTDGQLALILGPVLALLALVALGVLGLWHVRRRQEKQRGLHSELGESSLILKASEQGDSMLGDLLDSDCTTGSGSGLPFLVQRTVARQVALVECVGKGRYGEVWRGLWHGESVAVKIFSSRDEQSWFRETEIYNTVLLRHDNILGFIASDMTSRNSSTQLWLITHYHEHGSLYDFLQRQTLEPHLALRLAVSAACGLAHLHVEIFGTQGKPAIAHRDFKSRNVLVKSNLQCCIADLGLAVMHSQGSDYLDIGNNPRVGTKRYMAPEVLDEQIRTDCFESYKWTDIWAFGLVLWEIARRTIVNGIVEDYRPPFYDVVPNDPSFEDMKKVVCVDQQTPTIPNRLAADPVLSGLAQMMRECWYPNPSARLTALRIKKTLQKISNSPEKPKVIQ

Compound	residual activity (ACVRL1 (human)) [%]	residual activity (ULK2 (human)) [%]	residual activity (EPHA2 (human)) [%]	residual activity (RPS6KB2 (human)) [%]	residual activity (CSNK2A2 (human)) [%]	residual activity (TBK1 (human)) [%]	residual activity (ULK1 (human)) [%]	residual activity (MAPKAPK3 (human)) [%]	residual activity (SRMS (human)) [%]	residual activity (FGFR4 (human)) [%]	residual activity (MET (human)) [%]	residual activity (CDK5 CDK5R1 p25 (human)) [%]	residual activity (AURKA (human)) [%]	residual activity (EPHB3 (human)) [%]	residual activity (RPS6KA3 KD1 KD2 (human)) [%]	residual activity (CSNK2A1 (human)) [%]	residual activity (VRK1 (human)) [%]	residual activity (NTRK1 (human)) [%]	residual activity (ROS1 (human)) [%]	residual activity (RPS6KA4 KD2 (human)) [%]	further results
CO[C@@H]1[C@H](N(C)C(=O)c2ccccc2)C[C@H]2O[C@]1(C)n1c3ccccc3c3c4c(c5c6ccccc6n2c5c31)C(=O)NC4	94.3	95.7	92.3	55.9	87.8	3.22	99.2	91.5	97.6	84.2	89.4	73.3	4.48	90.5	3.19	101	90.8	5.85	6.53	16.8	residual activity (MAP3K9 (human)): 0.446%; residual activity (EPHA1 (human)): 93.5%; residual activity (PKN2 (human)): 11.4%; residual activity (CDK2 CCNA2 (human)): 66.6%; residual activity (WEE1 (human)): 89.3%; residual activity (HIPK2 (human)): 106%; residual activity (PRKCE (human)): 10.7%; residual activity (HCK (human)): 14.9%; residual activity (PNCK (human)): 92.9%; residual activity (CLK4 (human)): 22.6%; residual activity (GRK4 (human)): 94.4%; residual activity (WNK2 (human)): 111%; residual activity [1]: 10.9%; residual activity (NUAK2 (human)): 26.2%; residual activity (PIM1 (human)): 41.2%
C[C@@H]1CCN(C(=O)CC#N)C[C@@H]1N(C)c1ncnc2[nH]ccc12	100	92	95.8	100	96.6	92.5	83	100	95.8	94.3	86.7	100	84.1	54.9	97	104	100	94.1	94.1	105	residual activity (NEK11 (human)): 91.7%; residual activity (CDK4 CCND3 (human)): 99.9%; residual activity (SRPK2 (human)): 90.7%; residual activity (CDK1 CCNB1 (human)): 90.8%; residual activity (MAP3K9 (human)): 113%; residual activity (EPHA1 (human)): 98%; residual activity (CDK2 CCNA2 (human)): 89.5%; residual activity (WEE1 (human)): 97.7%; residual activity (HIPK2 (human)): 96.9%; residual activity (PRKCE (human)): 98.5%; residual activity (HCK (human)): 88.3%; residual activity (PNCK (human)): 104%; residual activity (CLK4 (human)): 111%; residual activity (GRK4 (human)): 93.5%; residual activity (ERBB2 (human)): 109%; residual activity (WNK2 (human)): 101%; residual activity [1]: 97.5%; residual activity (NUAK2 (human)): 80.3%; residual activity (PIM1 (human)): 102%; residual activity (GRK6 (human)): 101%
Fc1ccc(-c2nc3n(c2-c2ccncc2)CCS3)cc1	97.9	106	107	85.6	105	90.6	82.6	95.5	102	82.8	92.7	98.2	92.1	96.1	107	106	86.8	99.5	95.8	88.8	residual activity (NEK11 (human)): 71.4%; residual activity (CDK4 CCND3 (human)): 94.9%; residual activity (CDK1 CCNB1 (human)): 91.4%; residual activity (MAP3K9 (human)): 83.6%; residual activity (EPHA1 (human)): 98.2%; residual activity (PKN2 (human)): 96.3%; residual activity (CDK2 CCNA2 (human)): 101%; residual activity (WEE1 (human)): 92.2%; residual activity (HIPK2 (human)): 99.2%; residual activity (PRKCE (human)): 97.7%; residual activity (HCK (human)): 101%; residual activity (PNCK (human)): 90.3%; residual activity (CLK4 (human)): 106%; residual activity (GRK4 (human)): 95.7%; residual activity (ERBB2 (human)): 105%; residual activity (WNK2 (human)): 104%; residual activity [1]: 112%; residual activity (NUAK2 (human)): 135%; residual activity (PIM1 (human)): 104%; residual activity (GRK6 (human)): 103%
